We go through four molecules from patent publication US12064453B2, “Biochemical and biomechanical conditioning for enhancing personalized mesenchymal stem cell therapies” (BOARD OF REGENTS, THE UNIVERSITY OF TEXAS SYSTEM, priority 2017, dated 2024).

The test system of assay [1] is Human mesenchymal stem cells (hMSCs). Briefly: Long term conditioning of hMSCs with biochemical factors and mechanical load, immunostaining. Format: cell-based. The note with it: seven days; for endothelial marker vWF: in combination with mechanical loading; for paxillin levels: with and without load (0.1 Hz, 7.5% strain, 4 hours daily).
Description: Human mesenchymal stem cells (hMSCs; Millipore) were cultured in low glucose DMEM medium supplemented with 15% fetal bovine serum, L-glutamine, and penicillin/streptomycin. Following trypsinization, cells were seeded on the membranes at 4,000 cells per cm^2 before mechanical loading. Immunocytochemical staining. Cells were fixed in 4% paraformaldehyde in PBS for 10 min followed by washing and permeabilization with 0.1% Triton X-100 PBS for 5 min. Next, samples were blocked with 1% BSA 5% FBS in PBS for 40 min. After washing, cells were incubated with primary antibodies (Table 1) overnight at 4° C. The next day, samples were washed in 1% BSA in PBS and was incubated with secondary antibodies and DAPI staining for 2 hours in a light protected environment. For actin staining, an alternative step was used in which samples were treated with Alexa 594 conjugated phalloidin for 30 min. Cells were washed thoroughly before they were imaged. For standard fluorescent microscopy, Zeiss Observerl was used. […] Long term conditioning of hMSCs using biochemical factors. For long term loading, cells were exposed to media containing small biomolecules (Table 3). They were loaded for 4 hours every day for 7 days under sine and brachial waveform at 0.1 Hz and 7.5% maximum strain and compared against those in static culture. Media containing the biomolecules were replaced on day 3 and day 5, with the exception of 5-Aza containing media. Due to the cytotoxic nature of 5-Aza, it was replaced with normal media on day 1. On day 6, media was replaced with 0.5% FBS containing media post loading. Following long term loading on day 7, the condition media was collected and further assays were performed on the cells. To examine the ability of long term application of mechanical loading in conditioning MSCs, the cells were treated with treatments known to cause differentiation into vascular/cardiovascular phenotypes including 5-azacitidine (5-aza), Dexamethasone with insulin (Dex+Ins), PDGF-BB, hydrocortisone (Hydrocort), EGF, VEGF-A, and TGF-β1.
Assay [2] has as its system TCF/LEF. The note with it: MSCs; loading at 0.1 Hz with VEGF treatment; 10 ng/ml; 8 hours. As for the experimental part: (§1) Transcription factor activity assay. The cells were transduced with luminescent reporter vectors for target transcription factors. Briefly, for each target transcription factor, freshly passaged hMSCs were treated with luciferase reporter expressing lentiviruses (Qiagen). For the drug screening assay, hMSCs were treated with biomolecules in the kinase inhibitor library (Millipore Calbiochem) 1 hour prior to loading. After mechanical loading, the cells were lysed and the relative luminescent signal was measured using the luciferase assay kit (Promega) with FlexStation-3 plate reader (Molecular Devices). For each plate, average from three individual readings was reported.
(§2) A major limitation of previous studies in mechanobiology is the limited ability to investigate a variety of conditions simultaneously. This gap in capability leads to an incomplete exploration of the range of mechanical conditions and greatly reduces the ability to examine synergy between applied mechanical forces and biochemical signals. Mesenchymal stem cells were transduced with lentiviruses expressing luciferase reporter constructs for transcription factors including FOXO, TCF/LEF, Smad2/3 and SRE and selected these to obtain a stable reporter cell line. […]

Assay [3] deals with FOXO. Particulars: MSCs; VEGF at 2 Hz frequency of loading (5% maximal strain) or at 1 Hz; 10 ng/ml; 8 hours. As for the experimental part: as §1, §2
The subject of assay [4] is Human mesenchymal stem cells (hMSCs). The note with it: long term conditioning.
Excerpt: Fluorescence Activated Cell Sorting (FACS). After long term loading, the cells were then detached from the loading plate using accutase (Sigma) and was labeled with fluorescent antibodies according the BD Bioscience FACS staining kit (BD 562725) for cardiovascular phenotypes such as endothelial, smooth muscle, and pericyte phenotypes. […] Fortessa of UT Austin Core Facility was used to measure population fluorescent signals.
To address these issues, a combinatorial set of mechanical loading and biochemical or pharmacological treatments were applied to MSCs and the phenotype assessed using multiple markers using FACS (FIG. 5A).
For assay [5], the system named is Smad2/3. Briefly: Smad transcription factor activity, multi-strain mechanical loading. The class given is cell-based, human. Particulars: MSCs; 0.1 Hz, 7.5% strain, 24 hours, co-treatment. As for the experimental part: Transcription factor activity assay.
To perform a high throughput assay of the dependence of magnitude of mechanical strain on the activation of Smad2/3, the heights of the individual pistons were adjusted to apply mechanical strains over a range of 0 to 17.5% strain, in increments of 2.5% strain (FIGS. 2B-D). […] The regulation of differentiation-related pathways in MSCs was examined by loading the cells for 24 hours under multi-strain conditions at 0.1 Hz and performing immunostaining. A maximal increase in nuclear to cytoplasmic Yap/Taz was found at 7.5% strain and maximal nuclear localization of Smad2/3 at 10-12.5% strain (FIG. 2F). In addition, there was a maximal increase in α-SMA expression in the range of strains from 7.5-12.5% strain (FIG. 2G). At 10-15% strain, there was a maximal increase in polymerized actin and paxillin (FIG. 2G). The mechanical loading was repeated at 7.5% strain with 0.1 Hz frequency using both sine and brachial waveforms and then performed western blotting. With brachial waveform loading, increases in PECAM-1 expression were found and as well as a reduction in α-SMA expression and an increase in p-Smad 2/3 (FIGS. 2H, I). Overall, these studies support maximal activation of Smad signaling in MSCs with 0.1 Hz of loading at 7.5% strain, with an increase in endothelial-like phenotype with brachial loading.

Assay [6] concerns Human mesenchymal stem cells (hMSCs). Briefly: Oil Red O or Alizarin Red staining for adipogenic and osteogenic differentiation. Format: cell-based.
Description: Long term conditioning of hMSCs using biochemical factors. For long term loading, cells were exposed to media containing small biomolecules (Table 3). They were loaded for 4 hours every day for 7 days under sine and brachial waveform at 0.1 Hz and 7.5% maximum strain and compared against those in static culture. Media containing the biomolecules were replaced on day 3 and day 5, with the exception of 5-Aza containing media. Due to the cytotoxic nature of 5-Aza, it was replaced with normal media on day 1. On day 6, media was replaced with 0.5% FBS containing media post loading. Following long term loading on day 7, the condition media was collected and further assays were performed on the cells. […] To test for adipogenic and osteogenic differentiation, the cells were also stained using Oil Red O or Alizarin Red dye.

In the case of VEGF, in assay [1], the “endothelial marker vWF” value is recorded as “to a lesser extent” and the paxillin levels result is “increased paxillin levels”. Besides, in assay [2], the “TCF/LEF transcription factor activity” value is reported as “synergistically activated”. Further, the “FOXO transcription factor activity” value in assay [3] is on record as “reduction in FOXO activity”. Besides, the “endothelial lineage defined by the FACS protocol” value in assay [4] is reported as “did not increase”.
For the molecule “EGF [growth factor, Sigma-Aldrich E9644, 10 ng/mL]”, in assay [1], the “endothelial marker vWF” value is on record as “to a lesser extent” and the paxillin levels entry is reported as “increased paxillin levels”.
With `Nc1ncn([C@@H]2O[C@H](CO)[C@@H](O)[C@H]2O)c(=O)n1` [5-aza, 5-Azacytidine], in assay [1] (in combination with mechanical load), the PECAM-1 result is on record as “increased”. Further, the paxillin levels result in assay [1] is listed as “increased paxillin levels”.
As to TGF-β1, the paxillin levels result in assay [1] is reported as “not increased”. Also, the “nuclear localization of Yap/Taz” value in assay [1] (with mechanical loading, in comparison to other treatment groups) is “markedly reduced”. For the same molecule, the “Smad transcription factor activity” value in assay [5] was “optimal synergistic activation”. For the same molecule, the “Osteogenesis (Alizarin Red)” value is on record as “observed” in assay [6] (static conditions) and “did not occur” in assay [6] (with mechanical loading).
